Test results as given in PubChem BioAssay AID1963835 (Molecular Pharmacology Branch, DTP, NCI, 2024).
pIC50: −log10 of the molar value.

Test system: 699152-130-R-J1-PDC complex spheroid viability
Assay: Anticancer human tumor 699152-130-R-J1-PDC patient-derived pancreatic carcinoma cell line growth inhibition [POLQ]
Details: for pIC50: curve of first compound; for viability, T/C: stronger effect = lower value
In short: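 Growth inhibition in 3D: complex spheroids (tumor PDC, HUVEC, MSC) treated with POLQ inhibitor combinations; where Cmax unknown, highest tested concentration 10 microM, except SN-38 at 1 microM.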
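Also: spheroids exposed to agents for 7 days before viability reading.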
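For viability, T/C in this document: percent of DMSO vehicle control viability so 100% = vehicle and 0% = no viable signal.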

CC(=O)O[C@H]1C(=O)[C@@]2(C)[C@H]([C@H](OC(=O)c3ccccc3)[C@]3(O)C[C@H](OC(=O)[C@H](O)[C@@H](NC(=O)c4ccccc4)c4ccccc4)C(C)=C1C3(C)C)[C@]1(OC(C)=O)CO[C@@H]1C[C@@H]2O + Nc1ccc(C#CCN(C(=O)Cc2ncc(C(F)(F)F)cc2C(F)(F)F)c2ccc(F)cc2)nn1
pIC50 (second compound 0.0316 µM): < 5.52
pIC50 (second compound 0.1 µM): < 5.52
pIC50 (second compound 0.316 µM): < 5.52
pIC50 (second compound 1 µM): < 5.52
pIC50 (second compound 3.16 µM): < 5.52
pIC50 (second compound 10 µM): < 5.52
viability, T/C (second compound 0.0316 µM, first compound 0.00949 µM): 82%
viability, T/C (second compound 0.0316 µM, first compound 0.03 µM): 66.1%
viability, T/C (second compound 0.0316 µM, first compound 0.0949 µM): 62.1%
viability, T/C (second compound 0.0316 µM, first compound 0.3 µM): 67.1%
viability, T/C (second compound 0.0316 µM, first compound 0.949 µM): 72.8%
viability, T/C (second compound 0.0316 µM, first compound 3 µM): 75.6%
viability, T/C (second compound 0.1 µM, first compound 0.00949 µM): 79.8%
viability, T/C (second compound 0.1 µM, first compound 0.03 µM): 69%
viability, T/C (second compound 0.1 µM, first compound 0.0949 µM): 61.4%
viability, T/C (second compound 0.1 µM, first compound 0.3 µM): 63.2%
viability, T/C (second compound 0.1 µM, first compound 0.949 µM): 68.8%
viability, T/C (second compound 0.1 µM, first compound 3 µM): 70.5%
viability, T/C (second compound 0.316 µM, first compound 0.00949 µM): 85.3%
viability, T/C (second compound 0.316 µM, first compound 0.03 µM): 69.2%
viability, T/C (second compound 0.316 µM, first compound 0.0949 µM): 65.5%
viability, T/C (second compound 0.316 µM, first compound 0.3 µM): 68%
viability, T/C (second compound 0.316 µM, first compound 0.949 µM): 64.8%
viability, T/C (second compound 0.316 µM, first compound 3 µM): 72.8%
viability, T/C (second compound 1 µM, first compound 0.00949 µM): 83%
viability, T/C (second compound 1 µM, first compound 0.03 µM): 72.2%
viability, T/C (second compound 1 µM, first compound 0.0949 µM): 65.5%
viability, T/C (second compound 1 µM, first compound 0.3 µM): 65.4%
viability, T/C (second compound 1 µM, first compound 0.949 µM): 71.6%
viability, T/C (second compound 1 µM, first compound 3 µM): 67.7%
viability, T/C (second compound 3.16 µM, first compound 0.00949 µM): 80.9%
viability, T/C (second compound 3.16 µM, first compound 0.03 µM): 68%
viability, T/C (second compound 3.16 µM, first compound 0.0949 µM): 65.4%
viability, T/C (second compound 3.16 µM, first compound 0.3 µM): 69.9%
viability, T/C (second compound 3.16 µM, first compound 0.949 µM): 84.2%
viability, T/C (second compound 3.16 µM, first compound 3 µM): 76.9%
viability, T/C (second compound 10 µM, first compound 0.00949 µM): 97%
viability, T/C (second compound 10 µM, first compound 0.03 µM): 70.5%
viability, T/C (second compound 10 µM, first compound 0.0949 µM): 72.3%
viability, T/C (second compound 10 µM, first compound 0.3 µM): 71.9%
viability, T/C (second compound 10 µM, first compound 0.949 µM): 86.7%
viability, T/C (second compound 10 µM, first compound 3 µM): 78.5%

C=CC(=O)N1CCN(c2nc(=O)n(-c3c(C)ccnc3C(C)C)c3nc(-c4c(O)cccc4F)c(F)cc23)C(C)C1 (centres undefined) + Nc1ccc(C#CCN(C(=O)Cc2ncc(C(F)(F)F)cc2C(F)(F)F)c2ccc(F)cc2)nn1
pIC50 (second compound 0.0316 µM): < 5.00
pIC50 (second compound 0.1 µM): < 5.00
pIC50 (second compound 0.316 µM): < 5.00
pIC50 (second compound 1 µM): < 5.00
pIC50 (second compound 3.16 µM): < 5.00
pIC50 (second compound 10 µM): < 5.00
viability, T/C (second compound 0.0316 µM, first compound 0.0316 µM): 99%
viability, T/C (second compound 0.0316 µM, first compound 0.1 µM): 91.6%
viability, T/C (second compound 0.0316 µM, first compound 0.316 µM): 102%
viability, T/C (second compound 0.0316 µM, first compound 1 µM): 117%
viability, T/C (second compound 0.0316 µM, first compound 3.16 µM): 115%
viability, T/C (second compound 0.0316 µM, first compound 10 µM): 103%
viability, T/C (second compound 0.1 µM, first compound 0.0316 µM): 92.8%
viability, T/C (second compound 0.1 µM, first compound 0.1 µM): 89.6%
viability, T/C (second compound 0.1 µM, first compound 0.316 µM): 106%
viability, T/C (second compound 0.1 µM, first compound 1 µM): 116%
viability, T/C (second compound 0.1 µM, first compound 3.16 µM): 123%
viability, T/C (second compound 0.1 µM, first compound 10 µM): 113%
viability, T/C (second compound 0.316 µM, first compound 0.0316 µM): 102%
viability, T/C (second compound 0.316 µM, first compound 0.1 µM): 106%
viability, T/C (second compound 0.316 µM, first compound 0.316 µM): 98.8%
viability, T/C (second compound 0.316 µM, first compound 1 µM): 118%
viability, T/C (second compound 0.316 µM, first compound 3.16 µM): 119%
viability, T/C (second compound 0.316 µM, first compound 10 µM): 97.4%
viability, T/C (second compound 1 µM, first compound 0.0316 µM): 104%
viability, T/C (second compound 1 µM, first compound 0.1 µM): 105%
viability, T/C (second compound 1 µM, first compound 0.316 µM): 103%
viability, T/C (second compound 1 µM, first compound 1 µM): 111%
viability, T/C (second compound 1 µM, first compound 3.16 µM): 124%
viability, T/C (second compound 1 µM, first compound 10 µM): 117%
viability, T/C (second compound 3.16 µM, first compound 0.0316 µM): 103%
viability, T/C (second compound 3.16 µM, first compound 0.1 µM): 125%
viability, T/C (second compound 3.16 µM, first compound 0.316 µM): 102%
viability, T/C (second compound 3.16 µM, first compound 1 µM): 119%
viability, T/C (second compound 3.16 µM, first compound 3.16 µM): 114%
viability, T/C (second compound 3.16 µM, first compound 10 µM): 95.9%
viability, T/C (second compound 10 µM, first compound 0.0316 µM): 110%
viability, T/C (second compound 10 µM, first compound 0.1 µM): 110%
viability, T/C (second compound 10 µM, first compound 0.316 µM): 122%
viability, T/C (second compound 10 µM, first compound 1 µM): 109%
viability, T/C (second compound 10 µM, first compound 3.16 µM): 125%
viability, T/C (second compound 10 µM, first compound 10 µM): 121%
